In US11076594B2, “Pyrazolone compound or salt thereof, preparation method therefor, herbicide composition and use thereof” (QINGDAO KINGAGROOT CHEMICAL COMPOUNDS CO., LTD., priority 2015, dated 2021):

Legend:
Type in all cases: in vivo
wheat [1] = assay: post-emergence stage experiment, crop (Table 1); settings: post-emergence spray at 4-5 leaf stage, 250 g/ha active ingredient with 450 kg/ha water, rated after 3 weeks in greenhouse
Outline: (§1)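 Post-emergence spray: compounds dissolved in acetone, Tween 80 added, diluted with water, applied to plants at 4-5 leaf stage. Plants kept 3 wk in greenhouse; activity scored as fresh-weight control rate.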

corn = assay: post-emergence stage experiment, crop (Table 1); settings: post-emergence spray at 4-5 leaf stage, 250 g/ha active ingredient with 450 kg/ha water, rated after 3 weeks in greenhouse
Outline: as §1

bidens bipinnata = assay: weed control effect in post-emergence stage (Table 1); design: key: Level 10: completely dead; Level 9: above 95% growth control rate; Level 8: above 90% growth control rate; Level 7: above 80% growth control rate; Level 6: above 70% growth control rate; Level 5: above 60% growth control rate; Level 4: above 50% growth control rate; Level 3: above 20% growth control rate; Level 2: 5%-20% growth control rate; Level 1: below 5% growth control rate; settings: post-emergence spray at 4-5 leaf stage, 250 g/ha active ingredient with 450 kg/ha water, rated after 3 weeks in greenhouse
Outline: as §1

echinochloa = assay: as above; design: key: Level 10: completely dead; Level 9: above 95% growth control rate; Level 8: above 90% growth control rate; Level 7: above 80% growth control rate; Level 6: above 70% growth control rate; Level 5: above 60% growth control rate; Level 4: above 50% growth control rate; Level 3: above 20% growth control rate; Level 2: 5%-20% growth control rate; Level 1: below 5% growth control rate; settings: post-emergence spray at 4-5 leaf stage, 250 g/ha active ingredient with 450 kg/ha water, rated after 3 weeks in greenhouse
Outline: as §1

rorippa indica = assay: as above; design: key: Level 10: completely dead; Level 9: above 95% growth control rate; Level 8: above 90% growth control rate; Level 7: above 80% growth control rate; Level 6: above 70% growth control rate; Level 5: above 60% growth control rate; Level 4: above 50% growth control rate; Level 3: above 20% growth control rate; Level 2: 5%-20% growth control rate; Level 1: below 5% growth control rate; settings: post-emergence spray at 4-5 leaf stage, 250 g/ha active ingredient with 450 kg/ha water, rated after 3 weeks in greenhouse
Outline: as §1

Indian mallow = assay: as above; design: key: Level 10: completely dead; Level 9: above 95% growth control rate; Level 8: above 90% growth control rate; Level 7: above 80% growth control rate; Level 6: above 70% growth control rate; Level 5: above 60% growth control rate; Level 4: above 50% growth control rate; Level 3: above 20% growth control rate; Level 2: 5%-20% growth control rate; Level 1: below 5% growth control rate; settings: post-emergence spray at 4-5 leaf stage, 250 g/ha active ingredient with 450 kg/ha water, rated after 3 weeks in greenhouse
Outline: as §1

foxtail = assay: as above; design: key: Level 10: completely dead; Level 9: above 95% growth control rate; Level 8: above 90% growth control rate; Level 7: above 80% growth control rate; Level 6: above 70% growth control rate; Level 5: above 60% growth control rate; Level 4: above 50% growth control rate; Level 3: above 20% growth control rate; Level 2: 5%-20% growth control rate; Level 1: below 5% growth control rate; settings: post-emergence spray at 4-5 leaf stage, 250 g/ha active ingredient with 450 kg/ha water, rated after 3 weeks in greenhouse
Outline: as §1

crab grass = assay: as above; design: key: Level 10: completely dead; Level 9: above 95% growth control rate; Level 8: above 90% growth control rate; Level 7: above 80% growth control rate; Level 6: above 70% growth control rate; Level 5: above 60% growth control rate; Level 4: above 50% growth control rate; Level 3: above 20% growth control rate; Level 2: 5%-20% growth control rate; Level 1: below 5% growth control rate; settings: post-emergence spray at 4-5 leaf stage, 250 g/ha active ingredient with 450 kg/ha water, rated after 3 weeks in greenhouse
Outline: as §1

rice = assay: post-emergence stage experiment, crop (Table 1); design: key: Level 10: completely dead; Level 9: above 95% growth control rate; Level 8: above 90% growth control rate; Level 7: above 80% growth control rate; Level 6: above 70% growth control rate; Level 5: above 60% growth control rate; Level 4: above 50% growth control rate; Level 3: above 20% growth control rate; Level 2: 5%-20% growth control rate; Level 1: below 5% growth control rate; settings: post-emergence spray at 4-5 leaf stage, 250 g/ha active ingredient with 450 kg/ha water, rated after 3 weeks in greenhouse
Outline: as §1

wheat [2] = assay: wheat field test, crop selectivity, greenhouse spray at 4 leaf stage; settings: 250 g/ha of the active substance; 4 weeks after treatment
Outline: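 Seeds sown in soil-filled pots, covered 0.5-2 cm, greenhouse-grown; sprayed at 4 leaf stage (2-3 wk); acetone/methyl oleate emulsion/water formulation; 4 wk greenhouse; fresh wt control rate.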

chickweed = assay: wheat field resistant broadleaf weed control, greenhouse spray at 4 leaf stage; design: key: Level 10: completely dead; Level 9: above 95% growth control rate; Level 8: above 90% growth control rate; Level 7: above 80% growth control rate; Level 6: above 70% growth control rate; Level 5: above 60% growth control rate; Level 4: above 50% growth control rate; Level 3: above 20% growth control rate; Level 2: 5%-20% growth control rate; Level 1: below 5% growth control rate; settings: 250 g/ha of the active substance; 4 weeks after treatment; ALS inhibitor resistant
Experimental: (§2) The activity level standard of harmful plant destruction (i.e. growth control rate) is as follows:
(§3) The above described growth control rate is fresh weight control rate.
(§4) The seeds of alopecurus japonicas, flixweed, shepherd's purse, corn gromwell, chickweed, beckmannia syzigachne, and annual ryegrass and wheat seeds were put into a plastic pot loaded with soil, and then covered with 0.5-2 cm soil, the seeds were allowed to grow in good greenhouse environment. The test plants were treated at 4 leaf stage 2-3 weeks after sowing. The test compounds of the present invention were dissolved in acetone respectively, then added with methyl oleate emulsion and diluted by certain amount of water to certain concentration. The solution was sprayed to the plant with a sprayer. Then the plants were cultured for 4 weeks in greenhouse.

flixweed = assay: as above; design: key: Level 10: completely dead; Level 9: above 95% growth control rate; Level 8: above 90% growth control rate; Level 7: above 80% growth control rate; Level 6: above 70% growth control rate; Level 5: above 60% growth control rate; Level 4: above 50% growth control rate; Level 3: above 20% growth control rate; Level 2: 5%-20% growth control rate; Level 1: below 5% growth control rate; settings: 250 g/ha of the active substance; 4 weeks after treatment; ALS inhibitor resistant
Experimental: as §2, §3, §4

corn gromwell = assay: as above; design: key: Level 10: completely dead; Level 9: above 95% growth control rate; Level 8: above 90% growth control rate; Level 7: above 80% growth control rate; Level 6: above 70% growth control rate; Level 5: above 60% growth control rate; Level 4: above 50% growth control rate; Level 3: above 20% growth control rate; Level 2: 5%-20% growth control rate; Level 1: below 5% growth control rate; settings: 250 g/ha of the active substance; 4 weeks after treatment; ALS inhibitor resistant
Experimental: as §2, §3, §4

shepherd's purse = assay: as above; design: key: Level 10: completely dead; Level 9: above 95% growth control rate; Level 8: above 90% growth control rate; Level 7: above 80% growth control rate; Level 6: above 70% growth control rate; Level 5: above 60% growth control rate; Level 4: above 50% growth control rate; Level 3: above 20% growth control rate; Level 2: 5%-20% growth control rate; Level 1: below 5% growth control rate; settings: 250 g/ha of the active substance; 4 weeks after treatment; ALS inhibitor resistant
Experimental: as §2, §3, §4

Cn1cc(C(=O)Oc2c(C(=O)c3ccc(C(F)(F)F)c(N4CCCCCC4=O)c3Cl)c(C3CC3)nn2C)cn1 [Compound 061]
effect on crop, Wheat (level) (wheat [1]): 0 | effect on crop, Corn (level) (corn): 1 (Level 1: below 5% growth control rate) | weed control effect, Bidens bipinnata (level) (bidens bipinnata): 7 (Level 7: above 80% growth control rate) | weed control effect, Echinochloa (level) (echinochloa): 5 (Level 5: above 60% growth control rate) | weed control effect, Rorippa indica (level) (rorippa indica): 10 | weed control effect, Indian mallow (level) (Indian mallow): 10 | weed control effect, Green foxtail (level) (foxtail): 1 (Level 1: below 5% growth control rate) | weed control effect, Crab grass (level) (crab grass): 4 (Level 4: above 50% growth control rate) | effect on crop, Rice (level) (rice): 1 (Level 1: below 5% growth control rate) | Wheat (activity level, crop damage) (wheat [2]): 0 | chickweed weed controlling effect (activity level) (chickweed): 10 | flixweed weed controlling effect (activity level) (flixweed): 10 | corn gromwell weed controlling effect (activity level) (corn gromwell): 10 | shepherd's purse weed controlling effect (activity level) (shepherd's purse): 10

Cn1cc(C(=O)Oc2c(C(=O)c3ccc(C(F)(F)F)c(N4CCCC4=O)c3Cl)c(C3CC3)nn2C)cn1 [Compound 028]
effect on crop, Wheat (level) (wheat [1]): 0 | effect on crop, Corn (level) (corn): 1 (Level 1: below 5% growth control rate) | weed control effect, Bidens bipinnata (level) (bidens bipinnata): 7 (Level 7: above 80% growth control rate) | weed control effect, Echinochloa (level) (echinochloa): 5 (Level 5: above 60% growth control rate) | weed control effect, Rorippa indica (level) (rorippa indica): 10 | weed control effect, Indian mallow (level) (Indian mallow): 10 | weed control effect, Green foxtail (level) (foxtail): 1 (Level 1: below 5% growth control rate) | weed control effect, Crab grass (level) (crab grass): 4 (Level 4: above 50% growth control rate) | effect on crop, Rice (level) (rice): 1 (Level 1: below 5% growth control rate) | Wheat (activity level, crop damage) (wheat [2]): 0 | chickweed weed controlling effect (activity level) (chickweed): 10 | flixweed weed controlling effect (activity level) (flixweed): 10 | corn gromwell weed controlling effect (activity level) (corn gromwell): 10 | shepherd's purse weed controlling effect (activity level) (shepherd's purse): 10

CCc1nn(C)c(OC(=O)c2cn(C)nc2C)c1C(=O)c1ccc(C(F)(F)F)c(N2CCCCCC2=O)c1Cl [Compound 121]
effect on crop, Wheat (level) (wheat [1]): 1 (Level 1: below 5% growth control rate) | effect on crop, Corn (level) (corn): 1 (Level 1: below 5% growth control rate) | weed control effect, Bidens bipinnata (level) (bidens bipinnata): 3 (Level 3: above 20% growth control rate) | weed control effect, Echinochloa (level) (echinochloa): 10 | weed control effect, Rorippa indica (level) (rorippa indica): 10 | weed control effect, Indian mallow (level) (Indian mallow): 5 (Level 5: above 60% growth control rate) | weed control effect, Green foxtail (level) (foxtail): 9 (Level 9: above 95% growth control rate) | weed control effect, Crab grass (level) (crab grass): 4 (Level 4: above 50% growth control rate) | effect on crop, Rice (level) (rice): 6 (Level 6: above 70% growth control rate) | Wheat (activity level, crop damage) (wheat [2]): 1 (Level 1: below 5% growth control rate) | chickweed weed controlling effect (activity level) (chickweed): 10 | flixweed weed controlling effect (activity level) (flixweed): 10 | corn gromwell weed controlling effect (activity level) (corn gromwell): 10 | shepherd's purse weed controlling effect (activity level) (shepherd's purse): 10

CCc1nn(C)c(OC(=O)c2cn(C)nc2C)c1C(=O)c1ccc(C(F)(F)F)c(N2CCCCC2=O)c1Cl [Compound 111]
effect on crop, Wheat (level) (wheat [1]): 1 (Level 1: below 5% growth control rate) | effect on crop, Corn (level) (corn): 1 (Level 1: below 5% growth control rate) | weed control effect, Bidens bipinnata (level) (bidens bipinnata): 4 (Level 4: above 50% growth control rate) | weed control effect, Echinochloa (level) (echinochloa): 10 | weed control effect, Rorippa indica (level) (rorippa indica): 10 | weed control effect, Indian mallow (level) (Indian mallow): 10 | weed control effect, Green foxtail (level) (foxtail): 2 (Level 2: 5%-20% growth control rate) | weed control effect, Crab grass (level) (crab grass): 3 (Level 3: above 20% growth control rate) | effect on crop, Rice (level) (rice): 10 | Wheat (activity level, crop damage) (wheat [2]): 1 (Level 1: below 5% growth control rate) | chickweed weed controlling effect (activity level) (chickweed): 10 | flixweed weed controlling effect (activity level) (flixweed): 10 | corn gromwell weed controlling effect (activity level) (corn gromwell): 10 | shepherd's purse weed controlling effect (activity level) (shepherd's purse): 10

CCc1nn(C)c(O)c1C(=O)c1ccc(C(F)(F)F)c(-n2cc(C)cn2)c1Cl [Compound 140]
effect on crop, Wheat (level) (wheat [1]): 0 | effect on crop, Corn (level) (corn): 0 | weed control effect, Bidens bipinnata (level) (bidens bipinnata): 8 (Level 8: above 90% growth control rate) | weed control effect, Echinochloa (level) (echinochloa): 8 (Level 8: above 90% growth control rate) | weed control effect, Rorippa indica (level) (rorippa indica): 10 | weed control effect, Indian mallow (level) (Indian mallow): 10 | weed control effect, Green foxtail (level) (foxtail): 7 (Level 7: above 80% growth control rate) | weed control effect, Crab grass (level) (crab grass): 1 (Level 1: below 5% growth control rate) | effect on crop, Rice (level) (rice): 10 | Wheat (activity level, crop damage) (wheat [2]): 0 | chickweed weed controlling effect (activity level) (chickweed): 10 | flixweed weed controlling effect (activity level) (flixweed): 10 | corn gromwell weed controlling effect (activity level) (corn gromwell): 10 | shepherd's purse weed controlling effect (activity level) (shepherd's purse): 10
